In PMC9324262, “Selective CDK9 Inhibition by Natural Compound Toyocamycin in Cancer Cells” (Cancers, 2022):

Assays:
[1] = system: YB5 cells; experiment: GFP reactivation in YB5 cell-based system (flow cytometry); design: species or system human; details: for GFP expression in YB5 cells, adenosine analogues: Figure S2; for GFP+ cells: alone, screen control
Protocol: YB5 cells are derived from SW48 cells (human colon cancer cell line), and contain a single insertion of a DNA hypermethylated cytomegalovirus (CMV) promoter driving the green fluorescent protein (GFP) gene, as previously described. YB5 cells are cultured in L-15 medium supplemented with 10% fetal bovine serum and grown in log-phase in 1% CO2 atmosphere. YB5 cells were authenticated by DNA fingerprinting prior to drug screening and validation experiments. GFP expression in YB5 cells is silenced in >99.9% of the cells due to the CMV promoter DNA hypermethylation and repressive chromatin marks around the transcriptional start site. The human HCT116 colon cancer-derived GFP-reporter system, comprising a GFP gene under the control of an endogenously hypermethylated SFRP1 gene promoter, was kindly provided by Dr. Stephen Baylin (Johns Hopkins University). These cells are cultured in McCoy’s 5A medium supplemented with 10% fetal bovine serum and grown in log-phase in 5% CO2 atmosphere at 37 °C. The 451-Lu-BR melanoma cells were a kind gift from Dr. Raza Zaidi (Fels Institute for Cancer Research and Molecular Biology, Temple University School of Medicine, Philadelphia). These cells are derived from parental 451-LU cells that have acquired resistance to BRAF inhibitors. The 451-Lu-BR cells were cultured at 37 °C in Dulbecco’s Modified Eagle Medium (DMEM) supplemented with 10% fetal bovine serum, L-alanyl-L-glutamine (2 mM), and gentamycin (50 µg/mL) in 5% CO2 at 37 °C. The natural drug library (natural product set II) containing 120 compounds was obtained from the National Cancer Institute Developmental Therapeutics Program. Natural compounds were dissolved in DMSO (10 mM) in 96-well plates that were kept at −80°C until use. Toyocamycin, analogues of toyocamycin (sangivamycin, tubercidin, 3-deaza-adenosine, DZNep), CDK inhibitors, and epigenetic drugs (decitabine, SAHA, trichostatin A, depsipeptide) were purchased from Sigma-Aldrich (St. Louis, MO, USA,) for validation studies, dissolved in DMSO, and kept at −80 °C until use.
YB5 cells were seeded at 30,000 cell/mL in 96-well plates (6000 cells/well) and treated 3 days after seeding. Cells were exposed to 120 natural compounds in 5 different experimental conditions: (1) 72 h exposure at 10 µM followed by 24 h recovery period prior to analysis; (2) 24 h treatment at 50 µM prior to analysis; (3) 72 h exposure at 10 µM of the compound library followed by 24 h treatment with HDAC inhibitor trichostatin A (200 nM) prior to analysis; (4) 72 h exposure at 10 µM in simultaneous combination with decitabine (50 nM) followed by 24 h recovery period prior to analysis; and (5) 72 h treatment with decitabine (50 nM) followed by 24 h exposure with the natural compound library (50 µM) prior to analysis. The scheme of different dose schedules is shown Figure S1A. During screening, drugs and cell culture media were replaced every day. To ensure the quality and the reproducibility of the screen, each 96-well plate was designed to include 80 natural compounds, 4 untreated wells, 4 wells treated with decitabine (50 nM, 72 h), 4 wells treated with trichostatin A (200 nM, 24 h), and their combination with decitabine (50 nM, 72 h) followed by trichostatin A treatment (200 nM, 24 h) prior to flow cytometry analysis. The percentage of GFP-expressing cells in control wells (untreated or treated with known epigenetic drugs) was measured and was reproducible between different plates.
After treatment, YB5 cells were trypsinized for 15 min and resuspended in L-15 media containing propidium iodide (PI) to stain dead cells. GFP expression and PI staining were quantified by a BD LSR II flow cytometer (BD Biosciences, San Jose, CA, USA). A maximum of 10,000 cells was analyzed per well. Validations were performed using a Millipore Guava flow cytometer (EMD, Millipore, Burlington, MA, USA). […]

[2] = system: CDK9; details: cited from earlier work
[3] = system: YB5 cells; experiment: anchorage-dependent clonogenic assay; assay type: cell-based, human; details: 10–50 nM, 72 h treatment, 2 weeks drug-free
Protocol: Two hundred YB5 cells were seeded per well in 6-well plates. On the following day, YB5 cells were treated with toyocamycin for 24 h or 72 h. Decitabine (10–50 nM for 72 h) was used as a positive control for the loss of clonogenic potential. Drugs and media were replaced each day. After treatment, media was removed. YB5 cells were grown in drug-free media for 2 weeks to allow visible colony formation prior to colony staining (0.5% methylene blue in 50% methanol). YB5 colonies were counted manually.

[4] = system: RNA-Pol II Ser2-P; experiment: Western blot, RNA Pol II and phospho-Pol II Ser2; assay type: cell-based, human; details: HCT116, 1–10 µM, 16 h
Protocol: YB5 cells were harvested in 50 mM Tris-HCl, 1% NP-40, 1 mM EDTA, 1 mM EGTA, 0.25% sodium deoxycholate, 150 mM NaCl, 50 mM sodium fluoride, and 1X Complete protease cocktail (Roche, Basel, Switzerland) with 1 mM PMSF. The total protein concentration was measured in all samples by standard BCA protocol (Pierce-23225, Thermo Scientific, Waltham, MA, USA) to ensure that an equal amount of protein was added to each sample. Protein extracts were run on 12% SDS–PAGE precast gels (Bio-Rad, Hercules, CA, USA, 345-0118). Proteins were transferred to polyvinylidene difluoride (PVDF) membranes in 10 mmol/L CAPS (pH-11) containing 10% methanol and detected by using specific primary antibodies, horseradish peroxidase–conjugated secondary antibodies (GE Healthcare, Chicago, IL, USA), and an enhanced chemiluminescence reagent (Pierce). PVDF membranes were incubated with specific primary antibodies (actin—A5441, Sigma, St. Louis, MO, USA; HA-tagged—H9608, Sigma; FLAG-tagged—F3165, Sigma). FLAG- and HA-tagged CDK9 plasmids were a generous gift from Dr Bassel E. Sawaya (Temple University). For CDK9 target modulation, HCT116 colon cancer cells were treated with toyocamycin or known CDK9 inhibitor BAY1251152 (Selleckchem, Houston, TX, USA). Whole cell extracts were obtained by lysing cells with 25 mM Tris (pH 7.3) and 1% sodium dodecyl sulfate (SDS). After sonication, total protein concentrations were determined using Bradford protein assay. The following primary antibodies were used to investigate the effect of CDK9 inhibition: Pol II against the N-term region (sc-55492, Santa Cruz, Dallas, TX, USA), Pol II against the C-term region (39097, Active motif, Carlsbad, CA, USA), Pol II phospho CTD ser2 (14-9802-82, Invitrogen, Waltham, MA, USA), Rb (ab181616, Abcam, Cambridge, UK), Rb phospho T826 (ab133446, Abcam, Cambridge, UK), CDK9 (ab39098, Abcam, Cambridge, UK), and actin (ab1801, Abcam, Cambridge, UK). Images were acquired with an Image Quant LAS4000 device from GE Healthcare Life Sciences. Band intensity quantifications were calculated using ImageJ software, edition 1.53 [27].

Row | Structure (SMILES) | GFP expression in YB5 cells, adenosine analogues ([1]; 24 h) | CDK9 inhibition IC50 values [2] | other results
1 | Nc1nccc2c1ncn2C1C=C(CO)C(O)C1O (stereo not shown) [DZNep] | only sangivamycin induced GFP expression |  | 
2 | CC(=O)N[C@@H]1CCC[C@H](C(=O)Nc2cc(-c3cnn4c3CC(C)(C)C4)c(Cl)cn2)C1 [AZD-4573] |  | low nanomolar range | 
3 | Nc1n[nH]c(N)c1N=Nc1ccc(O)cc1 [CAN-508] |  | low nanomolar range | 
4 | COc1ccccc1-c1cc(Nc2cccc(CS(N)(=O)=O)c2)ncn1 [LDC000067] |  | low nanomolar range | 
5 | Nc1nccc2c1ncn2[C@@H]1O[C@H](CO)[C@@H](O)[C@H]1O [3-deaza-adenosine] | only sangivamycin induced GFP expression |  | 
6 | Nc1ncn([C@H]2C[C@H](O)[C@@H](CO)O2)c(=O)n1 [decitabine, 5-aza-2′-deoxycytidine] |  |  | GFP+ cells ([1]; 50 nM, 72 h): about 15%; colony formation [3]: still produced colonies
7 | COc1cc(F)ccc1-c1cc(Nc2cc(CS(C)(=N)=O)ccn2)ncc1F (stereo not shown) [BAY1251152] |  |  | RNA Pol II band intensity, Pol II C-terminal antibody [4]: reduced the RNA Pol II band intensity; RNA-Pol II ser 2 phosphorylation [4]: significantly reduced
8 | NC(=O)c1cn([C@@H]2O[C@H](CO)[C@@H](O)[C@H]2O)c2ncnc(N)c12 [sangivamycin] | induced GFP expression in YB5 cells, but to a lesser extent than toyocamycin |  | GFP expression in YB5 cells, adenosine analogues ([1]; 24 h, listed as Sangivamycin): weak GFP activation; CDK9 inhibition [2]: direct CDK9 inhibition
9 | Nc1nc(N[C@H]2C[C@@H]3CC[C@H]2C3)sc1C(=O)c1ccccc1[N+](=O)[O-] [MC180295] |  |  | GFP fluorescence, % of YB5 cells ([1]; 500 nM, 48 h): about 10%
10 | CC(C)(C)c1cnc(CSc2cnc(NC(=O)C3CCNCC3)s2)o1 [SNS-032] |  | low nanomolar range | 
11 | Nc1ncnc2c1ccn2[C@@H]1O[C@H](CO)[C@@H](O)[C@H]1O [tubercidin] | only sangivamycin induced GFP expression |  | 
12 | CC(/C=C/C(=O)NO)=C\[C@@H](C)C(=O)c1ccc(N(C)C)cc1 [trichostatin A] |  |  | GFP+ cells ([1]; 200 nM, 24 h): about 6%
